Data: paper PMC11602153, “Differential redox sensitivity of tRNA dihydrouridylation” (Nucleic Acids Research, 2024)

How the values were obtained:
[1] = target: T1, DusA (Escherichia coli, UniProt P32695); test: flavin bound to the purified protein; assay type: binding; conditions: non-covalent; flavin named FMN elsewhere in the paper
T1 construct: expression construct, tags and host not described
T1 sequence (P32695 1-345): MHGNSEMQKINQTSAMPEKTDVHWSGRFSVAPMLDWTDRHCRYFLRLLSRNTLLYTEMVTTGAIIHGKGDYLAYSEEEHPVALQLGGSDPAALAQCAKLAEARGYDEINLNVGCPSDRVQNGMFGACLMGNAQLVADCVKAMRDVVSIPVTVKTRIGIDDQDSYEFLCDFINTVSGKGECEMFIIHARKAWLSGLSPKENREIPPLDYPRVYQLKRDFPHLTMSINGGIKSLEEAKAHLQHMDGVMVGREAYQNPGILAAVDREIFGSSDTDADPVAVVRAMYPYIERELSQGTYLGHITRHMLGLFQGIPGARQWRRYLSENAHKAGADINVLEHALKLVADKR

[2] = target: T2, DusC (Escherichia coli, UniProt P33371); test: flavin bound to the purified protein; assay type: binding; conditions: non-covalent; flavin named FMN elsewhere in the paper
T2 construct: expression construct, tags and host not described
T2 sequence (P33371 1-315): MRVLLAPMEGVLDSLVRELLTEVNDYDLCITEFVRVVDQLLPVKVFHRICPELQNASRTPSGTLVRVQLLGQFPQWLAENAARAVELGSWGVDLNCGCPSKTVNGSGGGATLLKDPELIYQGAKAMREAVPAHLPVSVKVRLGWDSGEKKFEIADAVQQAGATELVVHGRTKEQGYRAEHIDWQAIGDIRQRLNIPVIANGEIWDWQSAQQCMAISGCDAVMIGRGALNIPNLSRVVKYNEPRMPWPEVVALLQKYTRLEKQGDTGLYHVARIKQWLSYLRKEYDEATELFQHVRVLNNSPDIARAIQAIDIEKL

[3] = target: T3, DusB (Escherichia coli, UniProt P0ABT5); test: flavin bound to the purified protein; assay type: binding; conditions: non-covalent; flavin named FMN elsewhere in the paper
T3 construct: expression construct, tags and host not described
T3 sequence (P0ABT5 1-321): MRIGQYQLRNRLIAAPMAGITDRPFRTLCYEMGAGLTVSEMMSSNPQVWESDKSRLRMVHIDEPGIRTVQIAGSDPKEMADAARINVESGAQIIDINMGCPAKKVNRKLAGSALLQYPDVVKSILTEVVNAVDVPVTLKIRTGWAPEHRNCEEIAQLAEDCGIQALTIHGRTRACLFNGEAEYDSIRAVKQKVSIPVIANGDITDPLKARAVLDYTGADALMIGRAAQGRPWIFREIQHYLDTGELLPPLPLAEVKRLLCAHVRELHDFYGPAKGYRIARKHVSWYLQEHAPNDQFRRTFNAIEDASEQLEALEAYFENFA

[4] = substrate: NC(=O)C1=CN([C@@H]2O[C@H](COP(=O)(O)OP(=O)(O)OC[C@H]3O[C@@H](n4cnc5c(N)ncnc54)[C@H](OP(=O)(O)O)[C@@H]3O)[C@@H](O)[C@H]2O)C=CC1; test: NADPH oxidase, spectrophotometric, steady state; assay type: biochemical, Escherichia coli; conditions: air (O2) as final electron acceptor, 50 mM HEPES pH 7.5, 150 mM NaCl, 15% glycerol, no tRNA

Molecule	flavin bound to the purified protein [1]	flavin bound to the purified protein [2]	flavin bound to the purified protein [3]	Km [4] [µM]	kcat [4] [s⁻¹]
Cc1cc2nc3c(=O)[nH]c(=O)nc-3n(C[C@H](O)[C@H](O)[C@H](O)COP(=O)(O)O)c2cc1C [FMN]	exhibited non-covalently bound flavin, associated with the apoproteins	exhibited non-covalently bound flavin, associated with the apoproteins	exhibited non-covalently bound flavin, associated with the apoproteins	–	–
DusA (Escherichia coli K-12) (protein, expression construct, tags and host not described) MHGNSEMQKINQTSAMPEKTDVHWSGRFSVAPMLDWTDRHCRYFLRLLSRNTLLYTEMVTTGAIIHGKGDYLAYSEEEHPVALQLGGSDPAALAQCAKLAEARGYDEINLNVGCPSDRVQNGMFGACLMGNAQLVADCVKAMRDVVSIPVTVKTRIGIDDQDSYEFLCDFINTVSGKGECEMFIIHARKAWLSGLSPKENREIPPLDYPRVYQLKRDFPHLTMSINGGIKSLEEAKAHLQHMDGVMVGREAYQNPGILAAVDREIFGSSDTDADPVAVVRAMYPYIERELSQGTYLGHITRHMLGLFQGIPGARQWRRYLSENAHKAGADINVLEHALKLVADKR	–	–	–	17 ± 3	0.48 ± 0.072
